Test results from the METLIN SMRT retention time set (Domingo-Almenara et al. 2019).

Experiment: gradient 5% acetonitrile 3 min, to 50% in 2 min, to 85% in 15 min, held 3 min, 100 µL/min
Conditions: column: Zorbax Extend-C18 2.1 x 50 mm; eluents: water / acetonitrile, 0.1% formic acid
Method in brief: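 Retention times of pure standards were taken from adduct peaks that were selected by computer and manually inspected. Over 3 months, mixtures of ~100 molecules were run by HPLC–quadrupole time-of-flight mass spectrometry in positive and negative ionization mode. The Zorbax Extend-C18 column (2.1 × 50 mm, 1.8 μm) ran at 100 μL/min in water and acetonitrile, each containing 0.1% formic acid, with 40 μL dead volume and 900 μL dwell volume.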

| SMILES | RP-LC retention time |
| --- | --- |
| O=S(=O)(Cc1ccccc1)N1CCC(OC2CCN(Cc3cccnc3)CC2)CC1 | 615 s |
| O=C1NCCCc2c1oc1ccc(O)cc21 | 567 s |
| CC(=O)Nc1nsc(N2CCC(C(=O)N3CCN(c4cccc(Cl)c4)CC3)CC2)n1 | 731 s |
| CCc1noc(-c2cccnc2N2CCCN(Cc3ccccc3Cl)CC2)n1 | 679 s |
| O=C(Oc1ccc[nH]c1=O)c1cccc(Cl)c1 | 756 s |
| Cc1cc(N2CCOCC2)n2nc(CN3CCN(c4cc(Cl)ccc4C)CC3)nc2n1 | 668 s |
| O=C(NC1CCCCC1)C1c2cccn2CC(=O)N1Cc1ccc(F)cc1 (stereo not given) | 918 s |
| CN(C)CC1(O)CCC2(CCN(C(=O)CC3CCCC3)CC2)CC1 | 598 s |
| Cc1[nH]c(=O)[nH]c(=O)c1CCc1nnc(SCC(=O)c2ccc3c(c2)NC(=O)CO3)o1 | 589 s |
| O=C(c1ccccc1OCC1CCCNC1)N1CCCC1 (stereo not given) | 596 s |
| CC(=O)c1sc(NC(=O)C2COc3ccccc3O2)nc1C (stereo not given) | 763 s |
| c1ccc(-c2oncc2CN2CCN(c3ccccn3)CC2)cc1 | 603 s |
| CC1Cc2cc(-c3cc(CC(=O)NCc4ccco4)no3)ccc2O1 (stereo not given) | 616 s |
| CCn1ncc(C(=O)NCCn2c(C)cnc2C2CCC2)c1C | 567 s |
| Cc1cc(SCC(=O)c2ccc3c(c2)OCO3)nc(C(C)C)n1 | 764 s |
| CCn1nccc1C(=O)N1c2ccccc2CC1c1nnc(C2CC2)o1 (stereo not given) | 755 s |
| COCCC(=O)N1CCc2c(c(-c3nc(C4CC4)no3)nn2C)C1 | 670 s |
| CCc1nccn1Cc1nc(-c2ccccc2Cl)no1 | 640 s |
| CCCCN(CC)CCNC(=O)C1CCCN(c2ncnc3c2nc2n3CCCCC2)C1 (stereo not given) | 614 s |
| COCc1nc(NCc2cccnc2)ncc1C(=O)O | 809 s |

| SMILES | RP-LC retention time |
| --- | --- |
| CC(C)CC(C(=O)N1CCN(c2ccccn2)CC1)N1Cc2ccccc2C1=O (stereo not given) | 650 s |
| COc1cc2c(cc1OC)C1C(C(=O)NCCCN3CCCCCC3)c3ccccc3C(=O)N1CC2 (stereo not given) | 617 s |
| CCC(=O)N1CCc2sc(C(=O)NCc3ccc(CC)cc3)cc2C1 | 824 s |
| CCn1ccc(C(=O)N2CCC(c3nc(-c4ccncc4)no3)C2)n1 (stereo not given) | 640 s |
| O=C(Nc1cccc(Cl)c1)C1CCN(c2cc(N3CCCC3)ncn2)CC1 | 714 s |
| O=C(c1ccsc1)N1CCC2(CC1)NC(=O)N(Cc1ccccc1)C2=O | 754 s |
| COCC1CN(C(C)=O)CC12CCN(C(=O)CSC)CC2 (stereo not given) | 602 s |
| COc1cc(OC)c(N(C)C(=O)C2CCCN(c3ncnc4c3nc3n4CCCCC3)C2)cc1Cl (stereo not given) | 854 s |
| O=C(c1ccc2c(=O)n(-c3ccccc3)c(N3CCCC3)nc2c1)N1CCN(c2ccccn2)CC1 | 617 s |
| Cc1nnc(NC(=O)c2cc(C3CC3)n(C3CCS(=O)(=O)C3)n2)s1 (stereo not given) | 646 s |
| CN(C)CC1CN(C(=O)c2c[nH]c3ccccc23)CC12CCOCC2 (stereo not given) | 725 s |
| CC(=O)N1CCc2cc(N3CC(C(=O)Nc4cc(F)ccc4F)CC3=O)ccc21 (stereo not given) | 712 s |
| O=C(NC1CCCC1)C1CCCN(c2nccn3nc(-c4ccccc4Cl)cc23)C1 (stereo not given) | 915 s |
| CC(=O)c1cn(CC(=O)NC(C)c2ccc3c(c2)OCCCO3)c2ccccc12 (stereo not given) | 794 s |
| C=CCN1CC[C@@]2(C)c3cc(O)ccc3CC1[C@@H]2C | 644 s |
| Cc1ccccc1Cn1c(CN2CCC(C(=O)NCCCN3CCCC3)CC2)cc2ccccc21 | 646 s |
| COCCOC1CCC12CCN(C(=O)c1occc1C)CC2 (stereo not given) | 779 s |
| O=C(c1cccc(Br)c1)N1CCN(CCn2cccn2)CC1 | 554 s |
| CC(=O)N1CCOc2cc(S(=O)(=O)N3CCCCCC3c3cccc(F)c3)ccc21 (stereo not given) | 999 s |

Other lines, results leading:

| RP-LC retention time | SMILES |
| --- | --- |
| 638 s | CCC(=O)Nc1ccc(CCc2nc3ccc(C(=O)NCc4ccc(C)o4)cc3[nH]2)cc1 |
| 683 s | Cc1nc(-c2cnccn2)nc2c1CCC(=O)N2Cc1ccco1 |
| 955 s | Cc1cccc(NC(=O)c2cc(C)n3nccc3n2)c1 |
| 917 s | COc1ccc(S(=O)(=O)N2CCCC(C)(C(=O)NCc3ccccc3)C2)cc1 (stereo not given) |
| 709 s | COc1ccc(OC)c(Nc2c(-c3ccc(C(=O)O)cc3)nc3cnccn23)c1 |
| 1250 s | CCN1C(=O)COc2ccc(-c3noc(-c4cccc(Cl)c4)n3)cc21 |
| 666 s | CCOc1ccc(NC(=O)Cn2cnc3nc(N4CCCC(C(=O)NC)C4)sc3c2=O)cc1 (stereo not given) |
| 638 s | O=c1c2cc(-c3ccc(F)cc3)nn2ccn1Cc1noc(CN2CCCC2)n1 |
| 1040 s | CCN1C(=O)COc2ccc(-c3csc(NC(=O)c4ccccc4OC)n3)cc21 |
| 686 s | CCCC(NC(=O)c1sccc1C)C(=O)Nc1nc2ccccc2[nH]1 (stereo not given) |
| 1030 s | Cc1ccc(-c2nc(C)cc(OCC(=O)Nc3ccccc3C)n2)cc1 |
| 642 s | CNC(=O)c1cn(-c2ccc(SCC(=O)NCc3ccc4c(c3)OCO4)nn2)cn1 |
| 1140 s | Cc1cc(C)cc(-c2nc(-c3ccc4c(c3)oc(=O)n4C(C)C)no2)c1 |
| 1170 s | Cc1ccc(-c2coc(-c3ccc(NC(=O)c4cccs4)cc3)n2)cc1 |
| 954 s | COc1ccc(C2CCN(C(=O)Nc3cccc(C(F)(F)F)c3)C2)cc1 (stereo not given) |
| 950 s | CCCC(=O)Nc1nc2ccc(CCC(=O)Nc3cccc(C(=O)OCC)c3)cc2s1 |
| 1160 s | Fc1ccccc1-c1noc(-c2nnn3c2COC(c2ccc(Cl)cc2)C3)n1 (stereo not given) |
| 1120 s | CCn1nccc1C(=O)N1CC(Oc2ccc(-c3nc(-c4ccccc4)no3)cc2)C1 |
| 712 s | COc1cc(OC)c(NC(=O)C2CC(=O)N(c3cccc(NC(C)=O)c3)C2)cc1Cl (stereo not given) |
| 686 s | CCc1nn2c(N3CCN(c4ccccn4)CC3)cc(C)nc2c1-c1ccc(F)cc1 |
| 1060 s | COc1ccc(NS(=O)(=O)c2c(C)nn(-c3ccc(-c4ccc(C)cc4)nn3)c2C)cc1 |
| 1310 s | Cc1ccc(-c2csc(-n3nc(C)c(CC(=O)N4CCc5ccccc5C4)c3C)n2)cc1 |
| 860 s | CC(C)NC(=O)c1ccc(OCC2CCN(C(=O)Cc3ccc(F)cc3)CC2)cc1 |
| 1170 s | Cc1cc(C(=O)Nc2ccc(Cl)cc2)nc2cc(-c3ccco3)nn12 |
| 1050 s | CCN1C(=O)C2(CCN(S(=O)(=O)c3ccc(C)cc3)CC2)c2ccccc21 |
| 744 s | COc1ccc(C2C(C(=O)NCCC(C)C)CCC(=O)N2c2cc(OC)c(OC)c(OC)c2)cc1 (stereo not given) |

| RP-LC retention time | SMILES |
| --- | --- |
| 1170 s | O=C(c1cccs1)N1CC(Oc2ccc(-c3nc(-c4ccccc4)no3)cc2)C1 |
| 1150 s | Cc1cc(C)cc(NC(=O)Nc2nccn(-c3cc(Cl)ccc3C)c2=O)c1 |
| 913 s | CCOC(=O)c1csc(NC(=O)c2csc3nc(-c4ccc(F)cc4)cn23)n1 |
| 873 s | COc1ccc(-n2ccn3cc(-c4cccc(Cl)c4)nc3c2=O)cc1 |
| 1040 s | COC(=O)c1cccc(NC(=O)c2sc3ncccc3c2-n2cccc2)c1 |
| 830 s | Cc1c(C(=O)NC2CC2)c(C)n(C)c1-c1ccccc1 |
| 683 s | CC(=O)c1ccc(NC(=O)C2Oc3ccccc3NC2=O)cc1 (stereo not given) |
| 945 s | Cn1cnc2c(C(=O)Nc3cccc(Cl)c3)nn(-c3ccccc3)c2c1=O |
| 822 s | Cc1oc(-c2ccc(NC(=O)c3ccc4c(c3)OCO4)cc2)nc1Cn1cccn1 |
| 974 s | Cc1cc(Cl)ccc1OCc1nc(-c2ccc3c(c2)nnn3CCC(=O)N2CCOCC2)no1 |
| 950 s | Cc1cccc(C(=O)Nc2ccc(N3CCN(C4CCCCC4)C3=O)nc2)c1 |
| 655 s | CCCn1cnc2ccc(-c3noc(CNC(=O)c4ccccc4)n3)cc21 |
| 895 s | Cc1noc(-c2cccnc2SCC(=O)Nc2cccc(Br)c2)n1 |
| 711 s | CC(=O)Nc1cccc(C(=O)NCCc2c[nH]c3ccc(F)cc23)c1 |
| 856 s | CCCc1cc(C2CCCN2C(=O)NCc2cccc(OC)c2)no1 (stereo not given) |
| 874 s | O=C(Nc1cc(F)ccc1F)C1CCN(c2ccc(=O)n(-c3ccc(F)cc3)n2)CC1 |
| 807 s | Cc1ccc(CNC(=O)C2(C)CN(S(C)(=O)=O)CC(=O)N2c2ccc(C)c(C)c2)cc1 (stereo not given) |
| 688 s | O=C(Cc1ccc(F)cc1)Nc1ccc2cn[nH]c2c1 |
| 668 s | CSc1cccc(NC(=O)Cn2cnc3c(-c4ccncc4)nsc3c2=O)c1 |
| 578 s | O=C(COc1ccc(F)cc1)NCC1CCC(c2nc3ccccc3[nH]2)CC1 (stereo not given) |
| 728 s | CNC(=O)CCc1nc2ccccc2n(CC(=O)N2CCOc3ccc(C)cc32)c1=O |
| 858 s | COc1cccc(CNC(=O)C2(C)CCCN(C(=O)Nc3ccc(F)cc3)C2)c1 (stereo not given) |
| 664 s | Cc1nn(CCCC(=O)NCCN(C)C)c(=O)c2c(-n3cccc3)n(-c3ccccc3)nc12 |
| 876 s | Cc1ccc(N2CC(c3nc(-c4ccc5c(c4)nc(C)c(=O)n5C)no3)CC2=O)cc1C (stereo not given) |
| 791 s | CCC(=O)Nc1ccc(-n2cnc(C(=O)NCc3ccc(C)c(C)c3)c2)nc1 |
